Experimental data taken from PMC12948284, “Halorotetin B, A Novel Terpenoid Compound Derived from Marine Ascidian, Suppresses Tumor Growth by Targeting the Cell Cycle Regulator UBE2C” (Advanced Science, 2025).

Tests used:
[1] = target: T1, recombinant human UBE2C (Homo sapiens, UniProt O00762); assay: surface plasmon resonance, […] Langmuir fit; type: binding
T1 sequence (O00762 2-179): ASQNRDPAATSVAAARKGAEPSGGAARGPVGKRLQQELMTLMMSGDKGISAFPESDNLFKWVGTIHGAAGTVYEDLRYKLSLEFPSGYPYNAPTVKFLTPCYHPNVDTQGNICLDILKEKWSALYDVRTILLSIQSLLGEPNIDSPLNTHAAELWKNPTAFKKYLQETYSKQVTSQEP

[2] = target: T2, UBE2C (endogenous, HCC cells) (Homo sapiens, UniProt O00762); assay: cellular thermal shift assay, Western blot; type: cell-based; settings: 20 µM, 24 h
T2 construct: endogenous protein in hepatocellular carcinoma cells, detected by Western blot (anti-UBE2C EPR-23165-31)
T2 sequence (O00762 2-179): T1 sequence (O00762 2-179)

[3] = target: T3, GFP-tagged UBE2C (pcDNA3.1-eGFP-UBE2C) (Homo sapiens, UniProt O00762); assay: CETSA, heated at […] °C for […] min; type: cell-based; settings: cells treated with Halorotetin B 24 h before purification
T3 sequence (O00762 2-179): T1 sequence (O00762 2-179)

[4] = target: T1, recombinant human UBE2C; assay: ubiquitylation kit, ubiquitin chain / E2-Ub formation, Western blot; type: biochemical; settings: 37 °C, 4 h; source of E2 not told

CC(=O)/C=C/C=C(/C)C#CC1=C(C)C[C@@H](O)CC1(C)C [Halorotetin B]
Kd [1]: 6.71 µM
cellular thermal shift assay, Western blot [2]: UBE2C exhibited significant thermal stabilization upon Halorotetin B treatment
CETSA, heated at 77 °C for 10 min [3]: The thermal stabilization of wide type UBE2C and Ser51‐mutant UBE2C
ubiquitylation kit, ubiquitin chain / E2-Ub formation, Western blot [4]: Halorotetin B significantly suppressed the enzymatic activity of UBE2C protein
